{"source": "patent US8703815B2", "about": "“Small molecules that covalently modify transthyretin” (The Scripps Research Institute, priority 2009, dated 2014)", "key": {"K15A-TTR [1]": {"molecular_target": "T1, K15A-TTR (Homo sapiens, UniProt P02766, K35A)", "T1 construct": "composed of 127-residue β-sheet-rich subunits; made in house", "assay": "RP-HPLC analysis of reaction with K15A-TTR homotetramer", "format": "binding", "description": "A strictly analogous study performed with the K15A homotetrameric TTR mutant confirmed that K15 was essential for the observed chemoselective reaction between TTR and Compounds […] (FIG. 1A, bottom trace). […] However, it is important to note that Compounds 1-3 were only slightly less chemoselective (<5% reaction with K15A).\nThe ability of compounds A1 and A2, auxochromic analogs of previously discussed stilbenes [Klabunde et al., Nat. Struct. Biol. 2000, 7, 312-321; Connelly et al., Curr. Opin. Struc. Biol. 2010, 20, 54-62; Johnson et al., J. Med. Chem. 2008, 51, 6348-6358; Choi et al., J. Am. Chem. Soc. 2010, 132, 1359-1370; Choi et al., Nat. Chem. Biol. 2010, 6, 133-139; and Baures et al., Bioorg. Med. Chem. 1998, 6, 1389-1401] to form a chemoselective amide bond with the K15 residue of TTR was assessed by reverse-phase-HPLC and liquid chromatography-mass spectrometry analysis. […] The binding of the covalent modifier A2 to K15A-TTR (in the absence of amide bond conjugation) was confirmed by incubating A2 with K15A-TTR in phosphate buffer (pH 7) followed by K15A immunoisolation using a Sepharose® resin-conjugated anti-TTR polyclonal antibody [Purkey et al., Proc. Natl. Acad. Sci. U.S.A. 2001, 98, 5566-5571].\nRecombinant WT-TTR was expressed as described previously [Lashuel et al., Biochemistry 38:13560-13573 (1999)]. For analysis of test compounds with TTR, each compound (1.5 μL in DMSO, 1.44 mM) was added to 300 μL of WT-TTR or K15A mutant TTR (3.6 μM, 10 mM sodium phosphate, 100 mM KCl, 1 mM EDTA, pH 7.0). The samples were vortexed, and incubated for 18 hours at 25° C. Reverse phase high performance liquid chromatography (RP-HPLC) was performed on a Water 600 E multi-solvent delivery system, using a Waters 486 tunable absorbance detector, a 717 autosampler, and a ThermoHypersil Keystone Betabasic-18 column μ150 Å pore size, 3 μm particle size, and mobile phase A; 0.1% TFA in 95% H2O+5% CH3CN and mobile phase B, 0.1% TFA in 95% CH3CN+5% H2O). Linear gradients were run from 100:0 to 0:100 A:B for 27 minutes."}, "K15A-TTR [2]": {"molecular_target": "T1, K15A-TTR", "assay": "Non-covalent binding stoichiometry to K15A-TTR (immunocapture, HPLC)", "settings": "maximum of 2 equivalents, washing, high-pH dissociation", "description": "K15A-TTR and any compound bound to it was immunocaptured using a Sepharose-resin-conjugated anti-TTR antibody.\nThe ability of compounds A1 and A2, auxochromic analogs of previously discussed stilbenes [Klabunde et al., Nat. Struct. Biol. 2000, 7, 312-321; Connelly et al., Curr. Opin. Struc. Biol. 2010, 20, 54-62; Johnson et al., J. Med. Chem. 2008, 51, 6348-6358; Choi et al., J. Am. Chem. Soc. 2010, 132, 1359-1370; Choi et al., Nat. Chem. Biol. 2010, 6, 133-139; and Baures et al., Bioorg. Med. Chem. 1998, 6, 1389-1401] to form a chemoselective amide bond with the K15 residue of TTR was assessed by reverse-phase-HPLC and liquid chromatography-mass spectrometry analysis. […]\nTo 1 mL of WT- or K15A-TTR (5 μM in pH 7.0 phosphate buffer) in a 2 mL Eppendorf tube was added A2 (5 μL of a 2 mM solution in DMSO, final concentration: 10 μM) and then the solution was incubated at 37° C. for 24 hours on a rocker plate (30 rpm). […] After centrifugation, the supernatant was analyzed by reverse phase HPLC on a Water 600 E multi-solvent delivery system, using a Waters 486 tunable absorbance detector, a 717 autosampler, and a ThermoHypersil Keystone Betabasic-18 column (150 Å pore size, 3 μm particle size). […]"}, "IMR-32 cells": {"system": "IMR-32 cells", "assay": "Compound cytotoxicity to IMR-32 cells in the absence of WT-TTR", "format": "cell-based, human", "experimental": "Metabolically active cells reduce the resazurin redox dye to resorufin, a soluble fluorescent compound. [O'Brien et al., Eur. J. Biochem. 267:5421-5426 (2002)] The percentage of viable cells was calculated relative to cells treated with vehicle only (cell culture media and DMSO=100% viable).\nThe human neuroblastoma IMR-32 cell line (CCL-127 ATCC) was maintained in Opti-MEM® medium (Invitrogen), supplemented with 5% FBS, 1 mM Hepes buffer, 2 mM L-glutamine, 100 units/mL penicillin, 100 μg/mL streptomycin and 0.05 mg/mL CaCl2 (complete cell medium). Cells were seeded in black wall, clear bottom, tissue culture treated 96-well plates (Costar) at a density of 6,000 cells/well in complete cell medium and incubated overnight (about 18 hours) at 37° C.\nRecombinant WT-TTR purified in the cold was used as the cytotoxic insult. The protein was buffer-exchanged in Hanks' Balanced Salt Solution (HBSS, Mediatech, Manassas, Va.) at 10° C. using a Centriprep® filter device (10 kDa MWCO, Millipore). Compounds (16 mM in DMSO) were diluted 1:1000 with WT-TTR (16 μM in HBSS, filter sterilized) or with HBSS only, vortexed and incubated for 18 hours at 37° C. WT-TTR (16 μM in HBSS) containing the same amount of DMSO was prepared in parallel and incubated under the same conditions.\nThe medium was removed from the cells and replaced immediately by the TTR/compound mixtures or HBSS previously diluted 1:1 in Opti-MEM® supplemented with 0.8 mg/mL BSA, 2 mM Hepes buffer, 4 mM L-glutamine, 200 units/mL penicillin, 200 μg/mL streptomycin and 0.1 mg/mL CaCl2. The cells were incubated 24 hours at 37° C. Cell viability was evaluated by a resazurin reduction assay.\nBriefly, 10 μL of resazurin (500 μM, PBS) was added to each well and fluorescence quantified in a plate reader (Ex/Em 530/590 nm, Tecan Safire 2, Austria) after 1 hour of incubation at 37° C. Cell viability was calculated as percentage of fluorescence relative to cells treated only with vehicle (100% viability) after subtraction of blank fluorescence (wells without cells). Averages and standard errors from 2 independently performed studies, each performed at least in triplicate, were calculated using GraphPrism (San Diego, Calif., US)."}}, "note": "Where two headings read alike, the source gives them in different places.", "data": [{"compound": "Cc1cc(/C=C/c2cc(C(=O)Sc3ccc(F)cc3)cc(N(C)C)c2)cc(C)c1O", "note": "[Compound A2, (E)-S-4-fluorophenyl 3-(dimethylamino)-5-(4-hydroxy-3,5-dimethylstyryl)-benzothioate]", "values": [{"measurement": "reaction with K15A-TTR (in words)", "setting": "K15A-TTR [1]", "result": "no conjugation"}, {"measurement": "equivalents non-covalently bound to K15A-TTR homotetramer", "setting": "K15A-TTR [2]", "result": 0.88, "unit": "equivalents"}]}, {"compound": "Cc1cc(/C=C/c2cccc(C(=O)Oc3ccc(F)cc3)c2)cc(C)c1O", "note": "[Compound 4, (E)-4-fluorophenyl 3-(4-hydroxy-3,5-dimethylstyryl)benzoate]", "values": [{"measurement": "reaction with K15A-TTR (in words)", "setting": "K15A-TTR [1]", "result": "no reaction could be detected"}, {"measurement": "cytotoxicity to IMR-32 cells in the absence of WT-TTR", "setting": "IMR-32 cells; human, IMR-32 neuroblastoma cells, 24 h, 8 µM", "result": "None of these compounds were cytotoxic to IMR-32 cells"}, {"measurement": "equivalents non-covalently bound to K15A-TTR homotetramer", "setting": "K15A-TTR [2]", "result": 1.4, "unit": "equivalents"}]}, {"compound": "Cc1cc(/C=C/c2cccc(C(=O)Sc3ccccc3)c2)cc(C)c1O", "note": "[Compound 2, (E)-S-phenyl 3-(4-hydroxy-3,5-dimethylstyryl)benzothioate]", "values": [{"measurement": "cytotoxicity to IMR-32 cells in the absence of WT-TTR", "setting": "IMR-32 cells", "result": "None of these compounds were cytotoxic to IMR-32 cells"}]}]}
